Data set [1] deals with T1, TRPC4 (Homo sapiens, UniProt Q9UBN4).
T1 construct: host or cells: Flp-In T-REx-293 (called HEK293T with Dox-inducible TRPC4)
T1 sequence (Q9UBN4 1-977): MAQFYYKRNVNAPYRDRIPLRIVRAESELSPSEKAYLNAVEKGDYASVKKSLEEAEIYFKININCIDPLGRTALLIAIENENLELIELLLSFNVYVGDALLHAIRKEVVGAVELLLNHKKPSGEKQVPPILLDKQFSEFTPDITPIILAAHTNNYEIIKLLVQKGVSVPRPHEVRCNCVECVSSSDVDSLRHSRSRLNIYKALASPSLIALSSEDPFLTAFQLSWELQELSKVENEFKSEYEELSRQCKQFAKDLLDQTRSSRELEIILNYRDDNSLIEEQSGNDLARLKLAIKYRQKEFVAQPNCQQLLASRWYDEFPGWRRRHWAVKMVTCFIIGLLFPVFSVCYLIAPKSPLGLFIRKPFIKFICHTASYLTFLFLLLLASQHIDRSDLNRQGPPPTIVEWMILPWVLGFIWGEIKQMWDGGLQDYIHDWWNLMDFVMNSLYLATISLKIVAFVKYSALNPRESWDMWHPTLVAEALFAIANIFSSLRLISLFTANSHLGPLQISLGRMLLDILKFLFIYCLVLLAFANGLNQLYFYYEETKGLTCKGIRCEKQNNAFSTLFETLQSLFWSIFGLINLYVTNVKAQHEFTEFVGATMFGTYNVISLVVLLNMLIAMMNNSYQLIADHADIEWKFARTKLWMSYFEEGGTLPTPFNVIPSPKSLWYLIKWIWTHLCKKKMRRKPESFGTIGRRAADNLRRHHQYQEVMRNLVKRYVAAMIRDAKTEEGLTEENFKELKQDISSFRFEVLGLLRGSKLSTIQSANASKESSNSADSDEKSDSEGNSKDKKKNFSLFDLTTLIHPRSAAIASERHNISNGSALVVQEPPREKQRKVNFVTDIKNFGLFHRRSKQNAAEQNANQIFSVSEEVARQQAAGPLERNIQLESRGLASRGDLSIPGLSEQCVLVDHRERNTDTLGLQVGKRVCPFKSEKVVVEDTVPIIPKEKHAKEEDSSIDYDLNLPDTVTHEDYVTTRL
Put plainly: Electrophysiology (QPatch-HT automated patch clamp, voltage ramp). Conditions: 10 μM ML204 + 5 μM englerin A; Dox-induced TRPC4. It is filed as cell-based. How it is done: TRPC4 currents were recorded from HEK293T cells with Dox-inducible TRPC4 on the QPatch-HT automated patch clamp system at room temperature (21–24°C) (Biolin Scientific, Stockholm, Sweden). The internal solution contained (in mM): 150 Cs-aspartate, 2 MgCl2, 0.36 CaCl2, 1 EGTA, 4 MgATP, 0.3 NaGTP and 10 HEPES, pH = 7.20 with CsOH (calculated free [Ca^2+] = 100 nM using WebMaxChelator http://www.stanford.edu/~cpatton/maxc.html, assuming an ionic strength of 0.16). The standard external solution contained (in mM): 150 NaCl, 4 KCl, 2 CaCl2, 1 MgCl2, 10 HEPES and 10 D-glucose (pH = 7.40) with NaOH. Currents were elicited by a voltage ramp protocol consisting of a 50 ms step to −100 mV, followed by a 200 ms ramp to +100 mV and 10 ms at +100 mV. Voltage ramps were applied every 10 s from a holding potential of 0 mV. Results were expressed as means ± S.E.M.
For orientation: Patch clamp records ionic current or voltage across a cell membrane.

In data set [2] the test system is A-673 cells. It is filed as cell-based. On the procedure:
Cell viability was measured 48 hours later using Cell Titer-Glo.

Each structure is given as a SMILES string.

Consider `Cc1cc(N2CCCCC2)nc2ccccc12` [ML204], for which the “effect on englerin A induced inward and outward currents” value in data set [1] is reported as “inhibited”. Besides, in data set [2], the “doses of ML204 alone at which A-673 cell growth is impaired” value is “higher than 50 μM”. In data set [2] (50 μM ML204 with 50 nM englerin A, A-673 cells), the “rescue of growth inhibition by englerin A” value was “partially rescued”.
